This note sets out measurements from US9096632B2, “Modulator of activity of adenylate cyclase” (Public University Corporation Yokohama City University, priority 2010, dated 2015).

Series [1] concerns the target T1, adenylyl cyclase activity in the striatum (type 5 adenylyl cyclase) (Mus musculus, UniProt P84309).
T1 construct: IC50 on adenylyl cyclase activity in the striatum; other: WT; estimated from 10, 50 and 100 μM; other: 100 μM compound
Description: Membrane adenylyl cyclase assay, WT striatal membrane, forskolin-stimulated. Conditions: 100 μM compound; 50 μM forskolin; WT striatal membrane; read-out: forskolin-stimulated adenylyl cyclase activity (relative to activity without inhibitor = 100). It is filed as biochemical. The procedure: (§1) FIG. 2 Inhibitory effects of various compounds on adenylyl cyclase activity in mouse striatum. The striatum is part of the brain. Here, it is known that type 5 adenylyl cyclase occupies almost all of the enzyme activity. […] Relative values are shown with adenylyl cyclase activity in the presence of 50 μM forskolin but in the absence of inhibitors being taken as 100 (n=4, means±S.E.).
(§2) <Membrane Adenylyl Cyclase Assay>
(§3) Striatal, cardiac and pulmonary tissues were removed from WT (C57BL) (Charles River Laboratories Japan, Inc.) and AC5KO (Circ. Res. 93: 364-371, 2003), both of which were 12-15 weeks of age after birth, and individual membrane protein fractions were prepared therefrom. The resultant membrane preparations were incubated with a reaction mixture (20 mM HEPES, pH 8, 5 mM MgCl2, 0.5 mM EDTA, pH 8, 0.1 mM ATP, 1 mM phospho creatine, 8 U/mL creatine phosphor kinase, 200 μM IBMX) at 30° C. in the presence of forskolin (an activator of adenylyl cyclase) (50 μM, Sigma Cat. No. F6886) and various compounds, to thereby allow production of cAMP. In this assay, striatum- or lung-derived membrane preparations were used in an amount of 1 μg, and heart-derived membrane preparation was used in an amount of 2 μg. 15 minutes (striatum and lung) or 30 minutes (heart) after its start, the reaction was terminated by adding trichloroacetate (TCA) solution to give a final concentration of 5%. Then, the protein was precipitated by centrifugation (13,500×g, 10 min).
(§4) In both membrane adenylyl cyclase assay and cAMP accumulation assay, the amount of cAMP contained in TCA solution was determined by radioimmunoassay using […].

Series [2] deals with adenylyl cyclase activity in the striatum (type 5 adenylyl cyclase). The series is described as above. It is filed as biochemical, mouse. The settings on record: 10 μM; WT; striatum vs lung. Here is the method: as §1, §2, §3, §4
The subject of series [3] is adenylyl cyclase activity in the heart. Description: Membrane adenylyl cyclase assay, WT heart membrane, forskolin-stimulated. Conditions: 10 μM; wild-type mouse; heart vs lung. It is filed as biochemical, mouse.
Text: FIG. 3 Inhibitory effects of individual vidarabine derivatives on adenylyl cyclase activity in the striatum, heart and lung. With adenylyl cyclase activity in the presence of […] but in the absence of inhibitors being taken as 100, the reductions in adenylyl cyclase activity upon treatment with various inhibitors at the concentrations indicated on the horizontal axis are shown (n=4, means±S.E.).
as §2, §3, §4

A further series deals with H9c2 cells. Description: cAMP accumulation assay in H9c2 cells, forskolin stimulation. It is filed as cell-based, rat. The settings on record: 50 μM compound, 100 μM forskolin, n=1, preliminary. Here is the method:
[…] <H9c2 Cultured Cells> […] No. D6429) in the presence of 95% air+5% CO2 at 37° C. 80-90% confluent H9c2 cells were suspended in 10% FBS-containing DMEM. The cell suspension (500 μl) was added to each well of 24-well plates to give a density of 40,000 cells/well, and incubated overnight at 37° C. Subsequently, cells were incubated in serum-free DMEM (500 μl/well) for 48 hours and subjected to cAMP accumulation assay. <cAMP Accumulation Assay> H9c2 cells were incubated in the presence of 500 μM IBMX for 20 minutes at 37° C. Then, various vidarabine derivatives were added to the culture broth to give a concentration of 50 μM. Cells were further incubated for 10 minutes at 37° C. […] Cells were further incubated at 4° C. overnight. Similar experiments were also carried out on rat adult cultured cardiac myocytes under stimulation with various vidarabine derivatives (10 μM) and forskolin (5 μM). In both membrane adenylyl cyclase assay and cAMP accumulation assay, the amount of cAMP contained in TCA solution was determined by radioimmunoassay using […].

Series [4] concerns rat embryo cultured cardiac myocytes. Description: TUNEL staining of cardiac myocytes (isoproterenol-induced apoptosis). It is filed as cell-based. Conditions: 10^−5 M compound with isoproterenol 10^−5 M, 48 hours. The procedure:
FIG. 10 TUNEL staining of cardiac myocytes. To a culture both of neonatal rat cardiac myocytes, isoproterenol (10^−5 M) either alone or in combination with vidarabine, V2E, V3E or VSE was added for stimulation (48 hours). Then, apoptosis positive cells were evaluated by TUNEL staining.
<TUNEL Staining of Cardiac Myocytes>
A culture broth of rat embryo cultured cardiac myocytes (pregnant Wistar rats were purchased from Nippon SLC) was stimulated (48 hours) with isoproterenol (10^−5 M) either alone or in combination with vidarabine, V2E, V3E or V5E (10^−5 M). Then, apoptosis positive cells were evaluated by TUNEL staining.

Series [5] concerns cardiac myocytes in myocardial tissues. Description: TUNEL staining of myocardial tissues of chronic catecholamine-loaded mice. The series is classed as in vivo, mouse. The settings on record: mice of the chronic isoproterenol loading experiment. Here is the method:
FIG. 12 TUNEL stain of myocardial tissues. Apoptosis positive cardiac myocytes in the hearts of mice used in chronic catecholamine loading experiment (FIG. 9) were evaluated by TUNEL staining (n=4-6, means±SE).
<TUNEL Staining of Myocardial Tissues>
Apoptosis positive cells of the mice used in the chronic catecholamine loading experiment were evaluated by TUNEL staining.

For series [6], the system named is strychnine-induced tonic extensive convulsion and death. The settings on record: for time to death induced by strychnine convulsion: 150 mg/kg (0.525 mmol/kg) and 300 mg/kg (1.05 mmol/kg) i.p. 15 min before strychnine 1.5 mg/kg; for migration to the central nervous system: evaluated indirectly from strychnine antagonism. Here is the method: FIG. 13 Effects on the central nervous system. […] Strychnine nitrate dissolved in physiological saline was administered in the cervicodorsal hypoderm of mice (C57BL/6N; Nippon SLC; male; 10-12 week old) at a dose of 1.5 mg/kg. Subsequently, the time to death through tonic extensive convulsion was measured so that the effect on migration to the central nervous system was evaluated indirectly. Vidarabine, V2E, V3E and V5E were dissolved or suspended in physiological saline and administered intraperitoneally 15 minutes before strychnine administration (n=4-10, means±SE) (FIG. 13). Death was judged to have occurred when the thoracic respiratory movement ceased.
The migration of vidarabine, V2E, V3E and V5E to the central nervous system was evaluated by antagonism against the tonic extensive convulsion and death initiated in mice by strychnine administration. Strychnine nitrate dissolved in physiological saline was administered in the cervicodorsal hypoderm of mice (C57BL/6N; Nippon SLC; male; 10-12 week old) at a dose of 1.5 mg/kg. Subsequently, the time to death through tonic extensive convulsion was measured. Vidarabine, V2E, V3E and V5E were dissolved or suspended in physiological saline and administered intraperitoneally 15 minutes before strychnine administration.

SMILES strings stand for the structures.

T1 sequence (P84309 whole entry): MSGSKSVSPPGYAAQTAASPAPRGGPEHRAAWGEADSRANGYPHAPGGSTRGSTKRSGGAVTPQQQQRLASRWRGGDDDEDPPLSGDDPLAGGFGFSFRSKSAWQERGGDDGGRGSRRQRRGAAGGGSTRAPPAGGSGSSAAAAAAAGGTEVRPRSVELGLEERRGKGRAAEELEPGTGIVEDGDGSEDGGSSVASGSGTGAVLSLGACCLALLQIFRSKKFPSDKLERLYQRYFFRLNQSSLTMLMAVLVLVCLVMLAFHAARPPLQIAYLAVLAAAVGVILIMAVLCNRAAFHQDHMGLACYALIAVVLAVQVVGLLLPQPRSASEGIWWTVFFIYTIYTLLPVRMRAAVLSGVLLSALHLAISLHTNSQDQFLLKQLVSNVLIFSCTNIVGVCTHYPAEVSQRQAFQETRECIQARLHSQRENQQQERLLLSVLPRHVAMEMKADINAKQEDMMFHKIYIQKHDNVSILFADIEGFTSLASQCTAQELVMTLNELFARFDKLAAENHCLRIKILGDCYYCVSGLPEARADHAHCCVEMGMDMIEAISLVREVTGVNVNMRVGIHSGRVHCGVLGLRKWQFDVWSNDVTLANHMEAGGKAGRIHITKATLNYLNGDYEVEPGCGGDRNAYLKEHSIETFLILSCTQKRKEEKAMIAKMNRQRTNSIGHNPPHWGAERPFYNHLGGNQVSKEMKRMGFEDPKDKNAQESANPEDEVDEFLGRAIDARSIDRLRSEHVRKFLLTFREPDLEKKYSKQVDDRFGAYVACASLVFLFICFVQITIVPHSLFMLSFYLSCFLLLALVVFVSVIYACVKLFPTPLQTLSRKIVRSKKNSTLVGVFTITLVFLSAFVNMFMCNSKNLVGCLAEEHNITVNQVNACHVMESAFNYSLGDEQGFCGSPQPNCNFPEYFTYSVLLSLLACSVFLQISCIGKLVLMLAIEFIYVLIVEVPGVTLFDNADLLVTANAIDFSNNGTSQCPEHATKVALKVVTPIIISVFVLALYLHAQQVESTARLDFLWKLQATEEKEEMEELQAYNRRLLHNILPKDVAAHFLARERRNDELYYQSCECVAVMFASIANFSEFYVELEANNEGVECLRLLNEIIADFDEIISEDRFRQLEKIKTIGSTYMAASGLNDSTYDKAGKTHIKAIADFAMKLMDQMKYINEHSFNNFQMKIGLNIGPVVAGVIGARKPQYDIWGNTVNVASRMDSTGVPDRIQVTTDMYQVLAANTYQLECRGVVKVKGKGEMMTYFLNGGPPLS

For `CN(C)CC(=O)OC1C(O)C(CO)OC1n1cnc2c(N)ncnc21` (stereo not drawn) [V2E, 2-O—(N,N-Dimethylglycyl)Vidarabine], in series [1], the activity at 100 µM was about 24.5%. Moreover, in series [2], the “inhibition of adenylyl cyclase activity in striatum relative to lung (tissue specificity)” value is “about 3.0 fold”. For the same compound, in series [3], the “inhibition of adenylyl cyclase activity in heart relative to lung (tissue specificity)” value is “about 2.6 fold”. Further, the “level of cAMP accumulated in response to forskolin (relative to control)” value (from here on “level … (relative to control)”) with H9c2 cells is “about 57.1%”. The “inhibitory effect on isoproterenol stimulation-induced apoptosis (TUNEL positive cells)” value (“inhibitory effect” below) in series [4] is “comparable to the effect of vidarabine”. Further, in series [5], the “apoptosis of cardiac myocytes induced by chronic catecholamine stimulation (TUNEL, myocardial tissue)” value was “equally inhibited”. In series [6], the “time to death induced by strychnine convulsion” value (“time to death induced” for short) is on record as “did not prolong” and the “migration to the central nervous system” value is listed as “extremely low”.
In the case of `CN(C)CC(=O)OC1C(CO)OC(n2cnc3c(N)ncnc32)C1O` (stereo not drawn) [V3E, 3-O—(N,N-Dimethylglycyl)Vidarabine], the activity at 100 µM in series [1] was about 25.1%. Further, the “level … (relative to control)” value in the series with H9c2 cells is given as “about 45.7%”. The “inhibitory effect” value in series [4] is “comparable to the effect of vidarabine”. In series [6], the “time to death induced” value is “did not prolong” and the “migration to the central nervous system” value is listed as “extremely low”.
In the case of `CN(C)CC(=O)OCC1OC(n2cnc3c(N)ncnc32)C(O)C1O` (stereo not drawn) [V5E, 5-O—(N,N-Dimethylglycyl)Vidarabine], the activity at 100 µM in series [1] was about 24.9%. The “level … (relative to control)” value in the series on H9c2 cells is recorded as “about 82.5%”. Moreover, in series [4], the “inhibitory effect” value is recorded as “comparable to the effect of vidarabine”. In series [6], the “time to death induced” value is recorded as “did not prolong” and the “migration to the central nervous system” value was “extremely low”.
For the compound `Nc1ncnc2c1ncn2[C@@H]1O[C@H](CO)[C@@H](O)[C@@H]1O` [vidarabine, reference compound], the activity at 100 µM in series [1] is about 17.3%. In addition, the “inhibition of adenylyl cyclase activity in striatum relative to lung (tissue specificity)” value in series [2] is recorded as “about 2.8 fold”. The “inhibition of adenylyl cyclase activity in heart relative to lung (tissue specificity)” value in series [3] was “about 2.4 fold”. Besides, in the series on H9c2 cells, the “level … (relative to control)” value was “about 35.1%”. Moreover, the “apoptosis of cardiac myocytes induced by chronic catecholamine stimulation (TUNEL, myocardial tissue)” value in series [5] is reported as “equally inhibited”. The “time to death induced” value in series [6] is reported as “significantly prolonged”.
